Drawing on patent US12059422B2 (MEI Pharma, Inc., priority 2011, dated 2024), this text covers IC50 and α/β ratio for 13 compounds.

Test [1] has as its target T1, PI3K gamma (Homo sapiens, UniProt P48736).
T1 construct: purchased Invitrogen Corp., Carlsbad, CA, USA
The test can be described thus: Luciferase-based luminescence assay (ADP Glo), PI3K gamma enzymatic activity. The following applies: inhibition of enzymatic activity, 25 μM ATP, read-out: IC50 p110γ. In kind it is biochemical. Summed up: (§1)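 Final enzyme 4.8 nM PI3K beta or 7.6 nM PI3K gamma, with 50 μM PIP2 and 25 μM ATP, 1 h in HEPES pH 7.5 buffer with MgCl2, EGTA, NaCl, CHAPS and DTT. ADP formed measured by ADP-Glo luminescence; IC50 from 10-point curve fits.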

Test [2] deals with T2, PI3Kβ (Homo sapiens, UniProt P42338).
T2 construct: endogenous in cells; host or cells: PC-3 (ATCC #CRL-1435)
The test can be described thus: ELISA assay for PI3Kβ: in-cell ELISA, phosphorylation of AKT (Ser473) in PC-3 cells. In kind it is cell-based. The following applies: for IC50: cellular, pAKT (Ser473), PC-3 cells, LPA stimulation, read-out: IC50 p110β; for α/β ratio: ratio of cellular IC50 values, Table 2. On the procedure: Cellular PI3Kβ activity was determined by measuring the phosphorylation of AKT (Ser473) using an in-cell ELISA assay. PC-3 (prostate carcinoma) cells were obtained from ATCC (ATCC #CRL-1435). Growth medium was DMEM (CellGro #CV-10-013-CV) supplemented with 10% fetal bovine serum, 100 IU/mL penicillin, 100 μg/mL streptomycin, and 1×MEM non-essential amino acids. Phosphate buffered saline (PBS) contained 2.7 M NaCl, 54 mM KCl, 86 mM […] (dibasic, anhydrous), 28 mM […] (monobasic, anhydrous), pH 7.2, 10× stimulation mixture contained 50 μM LPA (Cayman #62215) diluted in serum-free DMEM medium (CellGro #CV-10-013-CV). Compounds for testing were dissolved and serially diluted in 100% DMSO (total of 10 concentrations), then diluted in serum-free DMEM to 2× final assay concentration. 2× fixative solution contained 8% formaldehyde (Amresco #M134) diluted in PBS. Permeabilization solution contained PBS supplemented with 0.1% Triton X-100. Blocking buffer was obtained from LiCor (LiCor #927-40000). Wash buffer contained PBS supplemented with 0.1% Tween-20. Primary antibody solution was rabbit anti-pAKT^S473 monoclonal antibody (Cell Signaling #4060) and mouse anti-total S6 (Santa Cruz #74459) diluted 1:500 and 1:2000, respectively, in blocking buffer. Secondary antibody solution was IRDye 800CW-conjugated goat anti-rabbit IgG (LiCor #926-32211) and IRDye 680LT-conjugated goat anti-mouse IgG (LiCor #926-68020) diluted 1:2000 and 1:1000, respectively, in blocking buffer.
PC-3 cells were subcultured in growth medium and seeded into flat, clear bottom, 96-well plates (Corning #3904) at 16000 cells/well, then incubated overnight in a 37° C., 5% CO2 incubator. Growth medium in plates was replaced with 100 μL/well serum-free DMEM and incubated overnight in a 37° C., 5% CO2 incubator. 50 μL/well of fresh serum-free DMEM was added to plates. Compound treatment was performed by adding 50 μL/well of 2× compound mixture to plates and incubating for 2 hrs at 37° C., 5% CO2, after which 11 μL/well of 10× stimulation mixture was added and plates were incubated for 10 min at 37° C., 5% CO2. Fixation was performed by adding 110 μL/well of 2× fixative solution to plates and incubating for 20 min at room temperature. Permeabilization was performed by replacing fixation solution with 150 μL/well permeabilization solution and incubating for 10 min at room temperature. Permeabilization was repeated (for a total of 2 times). Permeabilization solution was replaced with 100 μL/well blocking buffer and plates were incubated for 1 hr at room temperature, after which 100 μL/well of primary antibody solution was added and plates were incubated overnight at 4° C. Plates were washed with wash buffer, after which 100 μL/well of secondary antibody solution was added to the plates and incubated in the dark for 1 hr at room temperature. Plates were washed with wash buffer, followed by awash with PBS. After completely removing PBS, plates were scanned on the Licor Odyssey Imager. Images quantified using Licor Odyssey application software. IC50 values were determined by curve fitting using a Collaborative Drug Discovery database (www.collaborativedrug.com).

The target in test [3] is mTOR (Homo sapiens, UniProt P42345). In words: mTOR inhibition (Table 1). In kind it is biochemical. The following applies: Table 1, no method described.
In test [4] the target is T3, PI3K beta (Homo sapiens, UniProt P42338).
T3 construct: purchased Millipore, Billerica, MA, USA
The test can be described thus: Luciferase-based luminescence assay (ADP Glo), PI3K beta enzymatic activity. The following applies: for IC50: inhibition of enzymatic activity, ADP Glo, 25 μM ATP, read-out: IC50 p110β; for α/β ratio: ratio of enzymatic IC50 values, Table 1. The test is classed as biochemical. The procedure, abridged: as §1
For orientation: ADP-Glo first removes unused ATP, then detects ADP through luciferase.

Molecules are shown by their SMILES.

T3 sequence (P42338 whole entry, species assumed): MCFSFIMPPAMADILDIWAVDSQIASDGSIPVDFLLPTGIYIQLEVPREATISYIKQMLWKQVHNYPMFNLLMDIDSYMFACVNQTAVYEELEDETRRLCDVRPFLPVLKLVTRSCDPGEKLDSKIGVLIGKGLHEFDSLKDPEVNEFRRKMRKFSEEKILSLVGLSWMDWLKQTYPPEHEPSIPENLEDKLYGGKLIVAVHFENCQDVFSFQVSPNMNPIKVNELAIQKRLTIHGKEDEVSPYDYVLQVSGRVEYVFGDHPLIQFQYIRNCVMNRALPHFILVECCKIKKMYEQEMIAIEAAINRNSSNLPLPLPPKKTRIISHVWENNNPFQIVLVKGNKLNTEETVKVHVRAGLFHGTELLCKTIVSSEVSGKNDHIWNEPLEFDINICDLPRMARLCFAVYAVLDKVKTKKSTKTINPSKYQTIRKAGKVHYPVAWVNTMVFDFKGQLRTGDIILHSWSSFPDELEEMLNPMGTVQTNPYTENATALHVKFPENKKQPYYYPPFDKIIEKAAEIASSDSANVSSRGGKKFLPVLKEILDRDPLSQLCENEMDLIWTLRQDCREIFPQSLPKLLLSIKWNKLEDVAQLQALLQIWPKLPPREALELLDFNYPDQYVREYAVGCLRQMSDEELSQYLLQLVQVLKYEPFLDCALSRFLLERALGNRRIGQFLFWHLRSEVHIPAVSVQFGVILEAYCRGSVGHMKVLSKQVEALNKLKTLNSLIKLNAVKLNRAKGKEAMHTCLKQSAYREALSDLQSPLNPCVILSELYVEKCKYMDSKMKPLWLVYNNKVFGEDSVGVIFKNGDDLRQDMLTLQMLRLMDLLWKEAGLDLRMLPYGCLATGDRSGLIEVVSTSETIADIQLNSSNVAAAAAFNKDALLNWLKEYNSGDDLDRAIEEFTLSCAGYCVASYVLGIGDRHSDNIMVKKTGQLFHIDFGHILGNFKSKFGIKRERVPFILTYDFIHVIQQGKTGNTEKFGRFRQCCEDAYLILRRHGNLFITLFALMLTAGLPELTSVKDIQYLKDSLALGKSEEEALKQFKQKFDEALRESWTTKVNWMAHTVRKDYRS
T3 sequence (P27986 whole entry partner, species assumed): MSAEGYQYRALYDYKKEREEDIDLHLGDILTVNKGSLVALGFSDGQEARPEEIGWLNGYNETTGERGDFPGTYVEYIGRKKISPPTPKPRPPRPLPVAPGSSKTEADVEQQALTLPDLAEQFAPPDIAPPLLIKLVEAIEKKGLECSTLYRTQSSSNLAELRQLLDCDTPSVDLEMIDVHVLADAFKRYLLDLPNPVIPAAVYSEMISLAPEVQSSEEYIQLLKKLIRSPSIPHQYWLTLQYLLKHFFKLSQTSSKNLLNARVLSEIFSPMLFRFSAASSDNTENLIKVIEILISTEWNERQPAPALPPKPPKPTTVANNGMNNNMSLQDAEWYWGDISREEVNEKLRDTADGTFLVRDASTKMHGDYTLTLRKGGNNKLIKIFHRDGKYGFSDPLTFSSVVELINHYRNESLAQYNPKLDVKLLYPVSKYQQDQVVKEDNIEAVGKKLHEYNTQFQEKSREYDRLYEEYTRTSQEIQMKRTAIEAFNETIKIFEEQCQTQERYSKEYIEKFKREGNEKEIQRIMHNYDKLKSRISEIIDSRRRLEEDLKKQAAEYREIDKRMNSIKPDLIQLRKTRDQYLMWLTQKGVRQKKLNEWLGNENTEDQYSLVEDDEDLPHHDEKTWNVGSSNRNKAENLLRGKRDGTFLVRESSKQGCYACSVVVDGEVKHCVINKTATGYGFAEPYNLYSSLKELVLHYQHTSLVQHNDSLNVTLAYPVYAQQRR
T2 sequence (P42338 whole entry): as the sequence (P42338 whole entry, species assumed) above
T2 sequence (P27986 whole entry partner): as the sequence (P27986 whole entry partner, species assumed) above
T1 sequence (P48736 whole entry, species assumed): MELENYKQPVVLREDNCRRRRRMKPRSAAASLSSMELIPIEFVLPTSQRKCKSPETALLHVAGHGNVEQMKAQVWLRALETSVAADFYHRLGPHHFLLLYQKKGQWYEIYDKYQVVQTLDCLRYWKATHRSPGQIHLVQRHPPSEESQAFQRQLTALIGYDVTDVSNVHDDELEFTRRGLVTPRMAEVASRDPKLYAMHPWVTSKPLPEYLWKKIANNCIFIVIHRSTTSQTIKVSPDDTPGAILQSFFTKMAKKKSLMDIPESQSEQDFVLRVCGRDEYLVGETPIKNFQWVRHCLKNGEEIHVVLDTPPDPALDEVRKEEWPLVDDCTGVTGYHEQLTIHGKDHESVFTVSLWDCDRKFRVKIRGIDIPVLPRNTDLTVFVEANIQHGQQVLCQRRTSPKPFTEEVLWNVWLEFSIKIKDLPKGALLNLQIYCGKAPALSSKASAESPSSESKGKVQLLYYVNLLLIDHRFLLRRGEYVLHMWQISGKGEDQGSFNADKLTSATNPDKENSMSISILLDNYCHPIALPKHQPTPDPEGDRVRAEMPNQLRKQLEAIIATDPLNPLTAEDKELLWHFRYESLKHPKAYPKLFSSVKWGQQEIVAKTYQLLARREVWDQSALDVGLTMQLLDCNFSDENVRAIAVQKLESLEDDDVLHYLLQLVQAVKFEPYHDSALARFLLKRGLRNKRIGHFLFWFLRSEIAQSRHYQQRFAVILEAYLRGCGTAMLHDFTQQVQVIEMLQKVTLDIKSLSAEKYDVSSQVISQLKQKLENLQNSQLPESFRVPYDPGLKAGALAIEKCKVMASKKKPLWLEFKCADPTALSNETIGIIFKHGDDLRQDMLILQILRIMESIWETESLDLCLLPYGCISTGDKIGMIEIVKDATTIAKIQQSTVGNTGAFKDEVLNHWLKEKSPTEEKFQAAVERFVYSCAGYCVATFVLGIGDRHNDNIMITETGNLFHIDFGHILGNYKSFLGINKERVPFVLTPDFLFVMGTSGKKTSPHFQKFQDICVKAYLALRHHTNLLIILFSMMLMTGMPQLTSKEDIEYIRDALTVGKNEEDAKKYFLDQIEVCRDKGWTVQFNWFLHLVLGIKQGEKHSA

Broadly, the IC50 is the point on the concentration scale where inhibition reaches its midpoint. Take `CC(C)(Cc1ccccc1)Nc1nc(N2CCOCC2)nc(-n2c(C(F)F)nc3ccccc32)n1` [Compound A14, 4-(2-(difluoromethyl)-1H-benzo[d]imidazol-1-yl)-N-(2-methyl-1-phenylpropan-2-yl)-6-morpholino-1,3,5-triazin-2-amine]: the IC50 in test [1] was 200 to 500 nM; in test [2], no more than 100 nM; in test [3], greater than 500 nM; in test [4], no more than 100 nM. The α/β ratio entry is “B’” in test [2] and “A’” in test [4].

For `CC(C)(Cc1ccccc1F)Nc1nc(N2CCOCC2)nc(-n2c(C(F)F)nc3ccccc32)n1` [Compound A15, 4-(2-(difluoromethyl)-1H-benzo[d]imidazol-1-yl)-N-(1-(2-fluorophenyl)-2-methylpropan-2-yl)-6-morpholino-1,3,5-triazin-2-amine], the IC50 was greater than 500 nM in test [1], no more than 100 nM in test [2], greater than 500 nM in test [3] and 100 to 200 nM in test [4]. Besides, the α/β ratio entry is on record as “C’” in test [2] and “D’” in test [4].

Consider `CC(C)(Cc1ccccc1Cl)Nc1nc(N2CCOCC2)nc(-n2c(C(F)F)nc3ccccc32)n1` [Compound A16, 4-(2-(difluoromethyl)-1H-benzo[d]imidazol-1-yl)-N-(1-(2-chlorophenyl)-2-methylpropan-2-yl)-6-morpholino-1,3,5-triazin-2-amine], for which the IC50 in test [1] is 200 to 500 nM; in test [2], no more than 100 nM; in test [3], greater than 500 nM; in test [4], no more than 100 nM. Besides, the values for the α/β ratio entry in test [2] and in test [4] were “B’” and “A’”, respectively.

On to `Cc1ccccc1CC(C)(C)Nc1nc(N2CCOCC2)nc(-n2c(C(F)F)nc3ccccc32)n1` [Compound A18, 4-(2-(difluoromethyl)-1H-benzo[d]imidazol-1-yl)-N-(2-methyl-1-(o-tolyl)propan-2-yl)-6-morpholino-1,3,5-triazin-2-amine], for which the IC50 in test [1] was 200 to 500 nM; in test [2], no more than 100 nM; in test [3], greater than 500 nM; in test [4], no more than 100 nM. Further, the α/β ratio result in test [2] is “C’”; in test [4], “A’”.

`COc1ccccc1CC(C)(C)Nc1nc(N2CCOCC2)nc(-n2c(C(F)F)nc3ccccc32)n1` [Compound A19, 4-(2-(difluoromethyl)-1H-benzo[d]imidazol-1-yl)-N-(1-(2-methoxyphenyl)-2-methylpropan-2-yl)-6-morpholino-1,3,5-triazin-2-amine]: the IC50 in test [1] was 200 to 500 nM; in test [2], no more than 100 nM; in test [3] it was greater than 500 nM; in test [4] it was 200 to 500 nM. For the same compound, the α/β ratio result in test [4] was “D’”.

Consider `COc1cccc(CC(C)(C)Nc2nc(N3CCOCC3)nc(-n3c(C(F)F)nc4ccccc43)n2)c1` [Compound A21, 4-(2-(difluoromethyl)-1H-benzo[d]imidazol-1-yl)-N-(1-(3-methoxyphenyl)-2-methylpropan-2-yl)-6-morpholino-1,3,5-triazin-2-amine], for which the concentration for half-maximal inhibition (IC50) is greater than 500 nM in test [1], 100 to 200 nM in test [2], greater than 500 nM in test [3] and 100 to 200 nM in test [4]. In addition, the α/β ratio entry in test [2] is given as “A’”; in test [4], “C’”.

On to `CC(C)(Cc1ccc(F)cc1)Nc1nc(N2CCOCC2)nc(-n2c(C(F)F)nc3ccccc32)n1` [Compound A22, 4-(2-(difluoromethyl)-1H-benzo[d]imidazol-1-yl)-N-(1-(4-fluorophenyl)-2-methylpropan-2-yl)-6-morpholino-1,3,5-triazin-2-amine], for which the IC50 was 200 to 500 nM in test [1], no more than 100 nM in test [2], greater than 500 nM in test [3] and 100 to 200 nM in test [4]. The α/β ratio result in test [2] and in test [4] was “C’” throughout.

With `CC(C)(Cc1cccc2ccccc12)Nc1nc(N2CCOCC2)nc(-n2c(C(F)F)nc3ccccc32)n1` [Compound A27, 4-(2-(difluoromethyl)-1H-benzo[d]imidazol-1-yl)-N-(2-methyl-1-(naphthalen-1-yl)propan-2-yl)-6-morpholino-1,3,5-triazin-2-amine], the half-inhibitory concentration (IC50) in test [1] is no more than 100 nM; in test [2], no more than 100 nM; in test [3] it was greater than 500 nM; in test [4], no more than 100 nM. Also, in test [4], the α/β ratio result is recorded as “B’”.

Take `CC(C)(Cc1ccccc1-c1ccncc1)Nc1nc(N2CCOCC2)nc(-n2c(C(F)F)nc3ccccc32)n1` [Compound A33, 4-(2-(difluoromethyl)-1H-benzo[d]imidazol-1-yl)-N-(2-methyl-1-(2-(pyridin-4-yl)phenyl)propan-2-yl)-6-morpholino-1,3,5-triazin-2-amine]: the IC50 is 200 to 500 nM in test [1], no more than 100 nM in test [2], greater than 500 nM in test [3] and no more than 100 nM in test [4]. In addition, the α/β ratio result in test [4] is on record as “B’”.

As to `CN1CCC(c2ccccc2CC(C)(C)Nc2nc(N3CCOCC3)nc(-n3c(C(F)F)nc4ccccc43)n2)CC1` [Compound A35, 4-(2-(difluoromethyl)-1H-benzo[d]imidazol-1-yl)-N-(2-methyl-1-(2-(1-methylpiperidin-4-yl)phenyl)propan-2-yl)-6-morpholino-1,3,5-triazin-2-amine], the half-inhibitory concentration (IC50) in test [1] is greater than 500 nM; in test [2], no more than 100 nM; in test [3], greater than 500 nM; in test [4], 200 to 500 nM. Besides, the α/β ratio entry in test [2] is recorded as “A’”; in test [4], “B’”.

`CC(C)(Cc1cccc(F)c1)Nc1nc(N2CCOCC2)nc(-n2c(C(F)F)nc3ccccc32)n1` [Compound A39, 4-(2-(difluoromethyl)-1H-benzo[d]imidazol-1-yl)-N-(1-(3-fluorophenyl)-2-methylpropan-2-yl)-6-morpholino-1,3,5-triazin-2-amine]: the half-inhibitory concentration (IC50) in test [1] was 200 to 500 nM; in test [2], no more than 100 nM; in test [3] it was greater than 500 nM; in test [4], no more than 100 nM. In addition, the α/β ratio result in test [2] and in test [4] was “A’” throughout.

With `CC(C)(Cc1ccccc1-c1cccnc1)Nc1nc(N2CCOCC2)nc(-n2c(C(F)F)nc3ccccc32)n1` [Compound A40, 4-(2-(difluoromethyl)-1H-benzo[d]imidazol-1-yl)-N-(2-methyl-1-(2-(pyridin-3-yl)phenyl)propan-2-yl)-6-morpholino-1,3,5-triazin-2-amine], the IC50 was 200 to 500 nM in test [1], no more than 100 nM in test [2], greater than 500 nM in test [3] and no more than 100 nM in test [4]. For the same compound, the α/β ratio result is on record as “A’” in test [2] and “B’” in test [4].

Consider `CN1CCC(c2ccccc2CC(C)(C)Nc2nc(N3CCOCC3)nc(-n3c(C(F)F)nc4ccccc43)n2)C1` (centres unmarked) [Compound A75, 4-(2-(difluoromethyl)-1H-benzo[d]imidazol-1-yl)-N-(2-methyl-1-(2-(1-methylpyrrolidin-3-yl)phenyl)propan-2-yl)-6-morpholino-1,3,5-triazin-2-amine], for which, in test [2], the IC50 was no more than 100 nM and the α/β ratio result is on record as “A’”.
